From paper PMC8215115, “Systemically Achievable Doses of Beer Flavonoids Induce Estrogenicity in Human Endometrial Cells and Cause Synergistic Effects With Selected Pesticides” (Frontiers in Nutrition, 2021)
Entries after “also recorded” stand apart in the source; their conditions may differ.

Experiments:
[1] = system: ER-dependent induction of ALP expression in Ishikawa cells; experiment: Alkaline phosphatase (ALP) assay for estrogenicity; type: cell-based, human; conditions: for lowest concentration inducing ALP expression (starting from): single compound; for plateau of enzymatic (ALP) activity: relative to 1 nM E2 = 100%
Excerpt: In the present study, five exemplary pesticides (Figure 1B) were selected based on at least one published report of them acting as ER agonists, among them the publicly discussed herbicide glyphosate (GLP). Alkaline phosphatase (ALP) expression in Ishikawa cells was used as a natural reporter gene system for estrogenicity. On the contrary to some other in vitro test systems, this human endometrial cancer cell line expresses both, ER-α and ER-β, and thus facilitates the observation of interactions between chemicals acting as agonists to different receptor isoforms ([22]). Measuring the ALP-catalyzed conversion rate of 4-nitrophenyl phosphate to 4-nitrophenol as a marker for enzyme expression and thus ER activation, the test compounds were tested individually and in combination to generally address the concern of cumulative effects within this class of pesticides. To enable a direct comparison of effect strength, the same test system was used to determine the estrogenicity of a mixture of the most important hop polyphenols, resembling their respective concentration ratios in beer. Lastly, the two mixtures were combined in different ratios to assess potential combinatory effects toward ER activation.
ALP assays were performed as recently described ([23]). Briefly, 10,000 Ishikawa cells per well were seeded in 96-well plates and allowed to attach for 48 h in assay medium (phenol red - free DMEM/F-12 supplemented with 1% (v/v) CD-FBS and 1% (v/v) P/S). Stock solutions were prepared by solving test compounds in DMSO, which were then diluted to the test concentrations in assay medium, resulting in a final DMSO concentration of 0.1–0.2% (v/v) (depending on the number of mixed compounds in incubation solutions, but consistently reflected by the same concentration in the respective solvent control). Cells were incubated with incubation solutions containing the test compounds or combinations thereof for another 48 h. Subsequently, cells were washed with PBS and lyzed by shock-freezing. ALP activity was determined by monitoring the conversion of 4-nitrophenyl phosphate to 4-nitrophenol photometrically at 405 nm with a PerkinElmer Victor 3V^TM plate reader. The slope of the obtained dose-response curves was taken as a measure for the ER-dependent induction of ALP expression.
In brief, this method uses the mass-action law-derived median-effect equation (MDEE) to linearize dose-response curves of single compounds and combinations thereof. Subsequently, it facilitates the calculation of a parameter (the CI) which is indicative for the type and strength of a combinatory effect. […] To apply the model to ALP assay data, the latter were normalized to both, the solvent control and the positive control (1 nM E2, 100% effect). MDEE fitting and CI calculations were carried out using the CISNE tool ([26]) and MS Excel. Corresponding graphs and all further statistical calculations (normal distribution, one-way ANOVA, etc.) were carried out in Origin® 2020.

Ishikawa cells [2] = experiment: Sulforhodamine B (SRB) cell viability assay; type: cell-based, human; conditions: for Onset of cytotoxicity (lowest observed effect level), LOEL / cytotoxicity at highest applied concentration: Ishikawa cells; for Onset of cytotoxicity (lowest observed effect level), LOEL: 48 h incubation, at least three independent SRB assays; for cytotoxicity at highest applied concentration: 48 h
Experimental: To ensure that effects observed in ALP assays were not caused by cytotoxicity, SRB cell viability assays were carried out in parallel. As with estrogenicity assays, 10,000 cells/well were seeded in 96-well plates, allowed to grow for 48 h and incubated with test solutions for another 48 h. Afterwards, cells were fixed by addition of 50% (v/v) trichloroacetic acid and 1 h incubation at 4°C. After 2 times washing with tab water and 2 times of washing with 1% (v/v) acetic acid, plates were dried overnight, incubated with SRB reagent for 45 min, washed twice with water, twice with 1% acetic acid and again dried overnight. Lastly, 10 mM TRIS base buffer was added to dissolve protein-bound SRB and the absorbance of each well was measured at 570 nm with a PerkinElmer Victor 3V^TM plate reader.
To ensure non-cytotoxicity and thus to exclude false reporting anti-estrogenic effects, SRB cell viability assays were carried out in parallel (Ishikawa cells, 48 h incubation) to ALP assays. The single pesticides Dic, End, Fen and Met caused cytotoxic effects at high concentrations, with the lowest observed effect doses reported in Table 3. iX lead to a loss of cellular protein at the highest applied dose of 100 μM, a concentration which was however not applied in ALP assays.

[3] = humans, extract from hops containing 0.25 mg 8PN; cited from earlier work
[4] = Pharmacokinetics of 8PN in humans receiving an extract from hops; type: in vivo; conditions: consumption of 0.5–1 L of average-hopped beer, assuming linear kinetics
Excerpt: (§1) An often-used justification for discarding endocrine disrupting phytoestrogens in beer as a health concern is that the low bioavailability of hop polyphenols would limit systemically achieved doses to non-hazardous concentrations. At first sight, this notion seems to be supported by pharmacokinetic studies. […] This might partially result from the additional formation of 8PN from the naturally co-occurring iX, the most prevalent prenylflavonoid in beer ([24]), within the human gut ([18]) and liver ([31]). This reaction should be regarded as a metabolic activation due to the much higher estrogenicity of the reaction product. Assuming linear kinetics, the consumption of 0.5–1 L of average-hopped beer (Table 2) could result in systemic 8PN concentrations around 0.5 nM, a dose sufficient to cause significant estrogenicity in our in vitro test system (Figure 2).

[5] = system: MCF-7 breast cancer cells; parameters: method as in PMID 28711546; conditions: cited from earlier work
[6] = system: ER-dependent induction of ALP expression in Ishikawa cells; parameters: method as in PMID 30283786; conditions: cited from earlier work
[7] = Human intervention study, pharmacokinetics of XN; type: in vivo; conditions: plasma, 20 mg, estimated from CMax/AUC assuming standard physiological parameters, read-out: bioavailability (rough estimate)
Excerpt: as §1

[8] = parameters: method as in PMID 24038952; conditions: humans, 20 mg of XN; cited from earlier work
Ishikawa cells [9] = conditions: cited from earlier work
[10] = Ishikawa cells, 48 h, scaled to 1 nM E2 = 100%

SMILES: C[C@]12CC[C@@H]3c4ccc(O)cc4C[C@@H](CCCCCCCCC[S+]([O-])CCCC(F)(F)C(F)(F)F)[C@H]3[C@@H]1CC[C@@H]2O (stereo partly shown) [ICI 182,780, fulvestrant, reference compound]
- effect of co-incubation on estrogenicity of active compounds ([1]; co-incubation with active concentrations of the compounds): suppression of estrogenicity

SMILES: CNC(=O)Oc1cc(C)c(SC)c(C)c1 [Met, methiocarb]
- Onset of cytotoxicity (lowest observed effect level), LOEL (Ishikawa cells [2]): 100 µM
- lowest concentration inducing ALP expression (starting from) ([1]; Ishikawa cells, 48 h): 10 nM

SMILES: CC(C)=CCc1c(O)cc(O)c2c1O[C@H](c1ccc(O)cc1)CC2=O [8PN, 8-prenylnaringenin]
- AUC [3]: 24.3 ± 8.9 ng·h/mL
- CMax [3]: 1.4 ± 0.3 µg/L
- Cmax [3]: 3.8 nM
- cytotoxicity at highest applied concentration (Ishikawa cells [2]; 500 nM): no cytotoxicity
- estimated systemic concentration [4]: around 0.5 nM
- ED50 of ALP induction [1, 10]: 2.44 ± 1.60 nM
- lowest concentration inducing ALP expression (starting from) ([1]; Ishikawa cells, 48 h): 0.5 nM
- plateau of enzymatic (ALP) activity [1]: about 75%

SMILES: OC(c1ccc(Cl)cc1)(c1cncnc1)c1ccccc1Cl (stereo not shown) [Fen, fenarimol]
- Onset of cytotoxicity (lowest observed effect level), LOEL (Ishikawa cells [2]): 100 µM
- lowest concentration inducing ALP expression (starting from) ([1]; Ishikawa cells, 48 h): 2.5 nM

SMILES: O=C(O)CNCP(=O)(O)O [Glp, glyphosate]
- cytotoxicity (Ishikawa cells [2]; concentrations up to 300 μM): neither ER-mediated gene expression nor cytotoxicity
- cytotoxicity at highest applied concentration (Ishikawa cells [2]; up to 500 μM): no cytotoxicity
- concentration causing estrogen-like growth stimulation [5]: ≥ 59 µM
- ER-mediated gene expression (ALP) ([1]; concentrations up to 300 μM): neither ER-mediated gene expression nor cytotoxicity; also recorded: did not act estrogenic

SMILES: OC(c1ccc(Cl)cc1)(c1ccc(Cl)cc1)C(Cl)(Cl)Cl [Dic, dicofol]
- Onset of cytotoxicity (lowest observed effect level), LOEL (Ishikawa cells [2]): 50 µM
- lowest concentration inducing ALP expression (starting from) ([1]; Ishikawa cells, 48 h): 10 nM

SMILES: COc1cc(O)c(CC=C(C)C)c2c1C(=O)CC(c1ccc(O)cc1)O2 (stereo not shown) [iX, isoxanthohumol]
- Onset of cytotoxicity (lowest observed effect level), LOEL (Ishikawa cells [2]): 100 µM
- ED50 of ALP induction [1, 10]: 342 ± 125 nM
- lowest concentration inducing ALP expression (starting from) ([1]; Ishikawa cells, 48 h): 100 nM
- plateau of enzymatic (ALP) activity [1]: about 75%

SMILES: O=S1OCC2C(CO1)C1(Cl)C(Cl)=C(Cl)C2(Cl)C1(Cl)Cl (stereo not shown) [End, endosulfan]
- Onset of cytotoxicity (lowest observed effect level), LOEL (Ishikawa cells [2]): 50 µM
- lowest concentration inducing ALP expression (starting from) ([1]; Ishikawa cells, 48 h): 5 nM
- ED50 of ALP induction ([1]; calculated with the CISNE tool): 12300 ± 2900 nM

SMILES: COc1cc(O)c(CC=C(C)C)c(O)c1C(=O)/C=C/c1ccc(O)cc1 [XN, xanthohumol]
- estrogenicity in this test system [6]: not to act estrogenic
- bioavailability [7]: ~2%
- area under the curve (AUC) [8]: 92 ± 68 ng·h/mL
- peak plasma concentration (CMax) [8]: 33 ± 7 µg/L
- cytotoxicity in this experimental setup (Ishikawa cells [9]): non-cytotoxicity
